According to patent US20100305174A1, “Novel Heterocyclic Derivatives” (ORCHID RESEARCH LABORATORIES LIMITED, priority 2005, published 2010):
Like-named read-outs stand apart in the source and are kept apart here.

Columns and labels:
TNF-α = TNF-α inhibition in LPS-challenged human PBMC; type: cell-based; details: Homo sapiens, PBMC, LPS 100 ng/mL, 20 hours, read-out: % Inhibition TNF alpha
Experimental: (§1) Human PBMC cells were cultured and incubated with compounds listed in table-4 at 1 and 10 μM concentrations. Cells (1×10^6/mL) were challenged with lipopolysaccharides (LPS) at a concentration of (100 ng/mL) for 20 hours. Cell supernatant was analyzed for the presence of TNF-α, IL-1β and IL-6 cytokines by antibody directed enzyme-linked immunoassay.

DPP IV = target: T1, DPP IV (Homo sapiens, UniProt P27487); experiment: DPP IV assay (human plasma as source, H-gly-pro AMC substrate); type: biochemical; details: compared to vehicle control
T1 construct: using human plasma as a source of DPP IV; from tissue; host or cells: human plasma
Experimental: DPP IV assay is carried by using human plasma as a source of DPP IV. The compounds were incubated at a concentration of 1 and 10 μM in assay buffer containing DPP IV enzyme. The compounds were incubated for 1 hr and then the substrate H-gly-pro AMC was added and further incubated for 20 min and then the reaction was stopped on addition of 25% glacial acetic acid. The plates were read in a spectrofluorimeter to get RFU on setting excitation wavelength of 360 nm and emission wavelength of 460 nm. Percentage inhibition is calculated as compared to vehicle control.

MCF-7 = experiment: Inhibition of breast cancer cell growth (MTS); type: cell-based; details: 10 μM, six days, MTS viability
Experimental: MCF-7 is a breast cancer cell line and they were grown in 96 well plates at 1000 cells/well. The cells were pretreated with compounds mentioned in FIG. 2 at 10 μM concentration or taxol at 1 and 2.5 μM concentration or DMSO for six consecutive days. Every 48 hrs they were stained with MTS dye and viability was checked accordingly.

HT-29 = experiment: Inhibition of colon cancer cell growth (MTS); type: cell-based; details: 10 μM, six days, MTS viability
Experimental: HT-29 is a colon cancer cell line and they were grown in 96 well plates with seeding concentration of 1000 cells/well. The cells were pretreated with compounds mentioned in FIG. 3 at 10 μM concentrations or taxol at 1 and 2.5 μM concentration or DMSO for six consecutive days. Every 48 hrs they were stained with MTS dye and viability was checked accordingly.

IL-1β = IL-1β inhibition in LPS-challenged human PBMC; type: cell-based; details: Homo sapiens, PBMC; 10 μM, LPS 100 ng/mL, 20 hours; read-out: % Inhibition IL1beta
Experimental: as §1

3T3-L1 fibroblasts = experiment: Adipogenesis assay in 3T3-L1 (Oil-red-O staining); type: cell-based
Experimental: All known PPARγ agonists induce differentiation in fibroblast cells. The adipogenic potential of these compounds is correlated with their affinity to this receptor. To check quickly the affinity of compounds to these receptors, 3T3-L1 fibroblasts were treated with either DMSO control or rosiglitazone as positive control or the compounds at 1 μM concentration for several days. On day 13th, the differentiated adipocytes were stained with Oil-red-O (Sigma) and washed thoroughly to remove unbound stain and visualized under Olympus microscope. […] This is an indirect proof that example 78 have no affinity to PPARγ receptor.

[1] = system: streptozotocin induced diabetic mice; experiment: Antidiabetic activity in streptozotocin induced diabetic mice; type: in vivo, Swiss albino mice; details: Mus musculus, 168 h, 50 mg/kg oral, 7 days, plasma, compared to control group
Experimental: Swiss albino mice of either sex were used in the study at the age of 10 weeks. Diabetes was induced in animals by injecting streptozotocin by i.p. route at a dose of 200 mg/kg body weight. 48 hours after streptozotocin administration, the animals were kept for fasting for 6 hours and blood was collected and plasma separated and glucose was estimated. Animals showing greater than 200 mg/dl glucose levels were considered as diabetic and these animals were randomly distributed into various groups. The compounds listed in the table 3 were administered at a dose of 50 mg/kg body weight by oral route for 7 days. Later animals were fasted for 6 hours and blood was collected and plasma separated. Biochemical estimations like glucose, cholesterol and triglycerides were carried out using the plasma. The effect of compounds mentioned in the table was expressed in terms of percentage reduction in biochemical values as compared to control group.

3T3-L1 cells = experiment: Glucose uptake assay using 3T3-L1 cells; type: cell-based; details: statement in words, table-1 assay
Experimental: 3T3-L1 cells were differentiated by the addition of differentiation cocktail (72 μg/ml insulin, 0.5 mM IBMX, 400 ng/ml Dexamethasone) for 4 days and later fed with media without differentation cocktail for 7-8 days. After differentiation the cells were incubated with the either reference compound BLX-1002 or compounds listed in the table 1 at 1 μM concentrations for 72 hours and carried out the glucose uptake assay for 10 min by the addition of KRP buffer supplemented with 2.5 μCi/ml ^14C deoxy glucose. Stimulation Index is defined as the amount of ^14C Deoxyglucose uptake induced by 1 μM of BLX-1002 incubated for 72 hrs in an assay condition as per protocol described above with differentiated 3T3-L1 adipocytes. Values of compounds mentioned in table-1 are with reference to stimulation index of reference compound BLX-1002.

T1 sequence (P27487 39-766 limits assumed): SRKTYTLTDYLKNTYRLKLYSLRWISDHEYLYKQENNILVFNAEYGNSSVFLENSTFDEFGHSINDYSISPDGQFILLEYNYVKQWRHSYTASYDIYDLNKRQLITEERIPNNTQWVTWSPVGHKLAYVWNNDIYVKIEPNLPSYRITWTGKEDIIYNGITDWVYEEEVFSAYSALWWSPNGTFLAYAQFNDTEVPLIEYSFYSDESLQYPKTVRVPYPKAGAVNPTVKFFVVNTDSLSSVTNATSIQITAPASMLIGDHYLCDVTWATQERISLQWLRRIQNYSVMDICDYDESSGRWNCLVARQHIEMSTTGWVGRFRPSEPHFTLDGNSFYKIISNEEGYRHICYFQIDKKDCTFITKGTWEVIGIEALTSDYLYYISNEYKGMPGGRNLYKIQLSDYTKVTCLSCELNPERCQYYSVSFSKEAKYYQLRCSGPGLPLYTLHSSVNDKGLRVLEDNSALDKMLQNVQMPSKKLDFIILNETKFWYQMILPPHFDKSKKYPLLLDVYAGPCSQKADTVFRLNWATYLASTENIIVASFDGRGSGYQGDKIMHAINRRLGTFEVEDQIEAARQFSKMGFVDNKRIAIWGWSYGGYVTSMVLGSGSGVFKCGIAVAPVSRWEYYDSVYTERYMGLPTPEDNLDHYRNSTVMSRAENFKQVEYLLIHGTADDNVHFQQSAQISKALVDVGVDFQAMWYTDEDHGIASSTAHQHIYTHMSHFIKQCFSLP

Q: With `CN1C(=O)OCC1Cc1ccc(Oc2ccc(/C=C3\C(=O)Nc4ccccc43)cc2C(F)(F)F)cc1` (centres unmarked) [Example 14] as the compound, how does the inhibition at 1 µM (TNF-α; 1 μM) read?
A: 15.9%

Q: What about the inhibition at 10 µM (TNF-α; 10 μM) of the same compound?
A: 25.4%

Q: What about the inhibition at 1 µM (DPP IV; 1 μM) of the same compound?
A: 4.64%

Q: And the inhibition at 10 µM (DPP IV; 10 μM)?
A: 7.42%

Q: And the “inhibition of breast cancer cell growth” value (MCF-7)?
A: strong inhibitor

Q: And the “inhibition of colon cancer cell growth” value (HT-29)?
A: strong inhibitor

Q: What about the inhibition at 10 µM (IL-1β) of the same compound?
A: 32.1%

Q: `CCN1C(=O)OCC1Cc1ccc(Oc2ccc(CC3SC(=S)NC3=O)cc2)cc1` (centres unmarked) [Example 78, 3-ethyl-4-(4-{4-[(4-oxo-2-thioxo-1,3-thiazolidin-5-yl)methyl]phenoxy}benzyl)-1,3-oxazolidin-2-one] was tested. Which “adipogenesis (Oil-red-O staining)” value (3T3-L1 fibroblasts; 1 μM, stained on day 13) did it give?
A: remained unchanged

Q: What about the “adipogenesis DRC, Oil-red-O staining” value (3T3-L1 fibroblasts; at tested concentrations) of the same compound?
A: did not show significant staining

Q: And the “affinity to PPARγ receptor” value (3T3-L1 fibroblasts; indirect proof from adipogenesis assay)?
A: no affinity

Q: What about the inhibition in vivo at 50 mg/kg ([1]; read-out: % Reduction Cholesterol) of the same compound?
A: 59%

Q: And the inhibition in vivo at 50 mg/kg ([1]; read-out: % Reduction Glucose)?
A: 45.4%

Q: And the inhibition in vivo at 50 mg/kg ([1]; read-out: % Reduction Triglycerides)?
A: 44.2%

Q: What about the glucose uptake activity (3T3-L1 cells) of the same compound?
A: good glucose uptake activity
